Source: US8530648B2, “Diaza-spiro[5.5]undecanes” (Novartis AG, priority 2009, dated 2013)

How the values were obtained:
[1] = biological target: T1, hOx1R (Homo sapiens (Human), UniProt O43613); assay: Calcium accumulation in cells (FLIPR), hOx1R; assay type: cell-based; details: for Ki: inhibition of orexin A induced calcium accumulation, Cheng and Prusoff correction; for inhibition at 10 µM: measured at a concentration of 10 μM of compound
How it was run: (§1)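 Cells expressing human orexin 1 or 2 receptor, serum-deprived overnight, loaded with Fluo-4-AM (2 μM) plus 0.1 mM probenecid, pH 7.4 HEPES buffer with 1% BSA.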

[2] = biological target: T2, hOx2R (Homo sapiens (Human), UniProt O43614); assay: Calcium accumulation in cells (FLIPR), hOx2R; assay type: cell-based; details: for Ki: inhibition of orexin A induced calcium accumulation, Cheng and Prusoff correction; for inhibition at 10 µM: measured at a concentration of 10 μM of compound
How it was run: as §1

[3] = biological target: T1, hOx1R; assay: Radioligand binding assay, [3H]-SB649868, hOx1R; details: radioligand [3H]-SB649868, competition
Procedure: (§2) For crude cell membrane preparations, cells (CHO, Chinese hamster ovary or HEK, human embryonic kidney) expressing human orexin 1 or human orexin 2 receptors, were washed with HEPES (10 mM, pH 7.5), scraped off the culture plates with the same buffer, and centrifuged at 4° C. for 5 min at 2500×g. The cell pellet was either stored at −80° C. or used directly. Before the experiments, cell membranes were re-suspended in binding assay buffer (10 mM HEPES, 0.5% (w/v) bovine serum albumin, pH 7.5) by homogenisation with a Polytron homogeniser at 50 Hz for 20 s. Cell membranes were also used as made available by commercial providers.
(§3) Bound radioactivity was measured, and data were analysed with the program XLFIT or Graphpad Prism. Protein concentration was determined according to the Bradford/BioRad Protein Assay Kit.
(§4) In competition experiments, cell homogenates (150 μl) were incubated in assay buffer (10 mM HEPES, pH 7.5, 0.5% (w/v) bovine serum albumin, 5 mM MgCl2, 1 mM CaCl2, and tween 0.05%) for 1 h at room temperature with about 1 nM of the radioligand [^3H]-SB649868, 66 Ci/mmole, 50 μl), and with various concentrations of compounds of the invention (50 μl) in triplicates; non-specific binding was determined in the presence of almorexant (10 μM).

[4] = biological target: T2, hOx2R; assay: Radioligand binding assay, [3H]-SB649868, hOx2R; details: radioligand [3H]-SB649868, competition
Procedure: as §2, §3, §4

T2 sequence (O43614 whole entry): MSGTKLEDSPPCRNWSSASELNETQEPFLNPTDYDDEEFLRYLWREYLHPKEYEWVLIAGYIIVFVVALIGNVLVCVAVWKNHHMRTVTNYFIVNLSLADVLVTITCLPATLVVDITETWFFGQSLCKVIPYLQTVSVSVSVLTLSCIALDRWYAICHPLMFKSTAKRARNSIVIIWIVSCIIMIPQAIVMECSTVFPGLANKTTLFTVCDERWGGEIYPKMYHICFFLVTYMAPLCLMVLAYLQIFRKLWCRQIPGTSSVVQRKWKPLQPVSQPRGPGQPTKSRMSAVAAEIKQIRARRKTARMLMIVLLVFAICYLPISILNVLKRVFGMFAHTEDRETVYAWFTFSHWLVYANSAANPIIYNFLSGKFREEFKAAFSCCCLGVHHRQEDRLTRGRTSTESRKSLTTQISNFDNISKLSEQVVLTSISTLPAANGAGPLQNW
T1 sequence (O43613 whole entry): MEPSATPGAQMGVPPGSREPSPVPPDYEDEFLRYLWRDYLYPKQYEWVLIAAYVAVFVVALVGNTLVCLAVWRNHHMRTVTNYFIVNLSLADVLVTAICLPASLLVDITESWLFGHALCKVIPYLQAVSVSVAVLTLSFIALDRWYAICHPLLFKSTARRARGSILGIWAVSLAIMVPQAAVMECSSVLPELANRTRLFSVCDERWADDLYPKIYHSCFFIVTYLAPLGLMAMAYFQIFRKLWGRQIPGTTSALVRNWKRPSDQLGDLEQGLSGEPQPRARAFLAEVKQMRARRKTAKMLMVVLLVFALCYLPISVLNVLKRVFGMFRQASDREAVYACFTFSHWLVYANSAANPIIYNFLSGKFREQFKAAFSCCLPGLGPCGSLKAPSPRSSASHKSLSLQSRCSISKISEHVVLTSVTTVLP

SMILES | Ki [1] [nM] | Ki [2] [nM] | Kd [3] [nM] | Kd [4] [nM] | inhibition at 10 µM [1] [%] | inhibition at 10 µM [2] [%]
Cc1noc(-c2ccccc2CN2CCCC3(CCN(c4cnc5ccccc5n4)CC3)C2=O)n1 [Example 39, 2-(2-(3-methyl-1,2,4-oxadiazol-5-yl)benzyl)-9-(quinoxalin-2-yl)-2,9-diazaspiro[5.5]undecan-1-one] | 1420 | 25 | 2770 | 243 |  | 
Cn1ccc2c(CN3C(=O)CCCC34CCN(c3cnc5ccccc5n3)CC4)cccc21 [Example 44, 1-((1-methyl-1H-indol-4-yl)methyl)-9-(quinoxalin-2-yl)-1,9-diazaspiro[5.5]undecan-2-one] | 64 | 48 | 56 | 125 |  | 
O=C1N(Cc2c[nH]c3ccccc23)CCCC12CCN(c1cnc3ccccc3c1)CC2 [Example 48, 2-((1H-indol-3-yl)methyl)-9-(quinolin-3-yl)-2,9-diazaspiro[5.5]undecan-1-one] | 1040 | 32 | 1840 | 147 |  | 
O=C1N(Cc2cccc(-n3cccn3)c2)CCCC12CCN(c1cnc3ccccc3n1)CC2 [Example 60, 2-(3-(1H-pyrazol-1-yl)benzyl)-9-(quinoxalin-2-yl)-2,9-diazaspiro[5.5]undecan-1-one] | 391 | 49 | 728 | 191 |  | 
O=C1N(Cc2cccc(-c3ncccn3)c2)CCCC12CCN(c1cnc3ccccc3n1)CC2 [Example 61, 2-(3-(pyrimidin-2-yl)benzyl)-9-(quinoxalin-2-yl)-2,9-diazaspiro[5.5]undecan-1-one] | 373 | 62 | 2050 | 395 |  | 
O=C1N(Cc2ccnc(-n3cccn3)c2)CCCC12CCN(c1cnc3ccccc3n1)CC2 [Example 63, 2-((2-(1H-pyrazol-1-yl)pyridin-4-yl)methyl)-9-(quinoxalin-2-yl)-2,9-diazaspiro[5.5]undecan-1-one] | 900 | 83 | 3820 | 903 |  | 
Cc1noc(-c2cccc(CN3CCCC4(CCN(c5cnc6ccccc6n5)CC4)C3=O)c2)n1 [Example 104, 2-(3-(3-methyl-1,2,4-oxadiazol-5-yl)benzyl)-9-(quinoxalin-2-yl)-2,9-diazaspiro[5.5]undecan-1-one] |  | 106 |  | 1370 |  | 
O=C1N(Cc2ccccc2-c2ncccn2)CCCC12CCN(c1cnc3ccccc3n1)CC2 [Example 151, 2-(2-(pyrimidin-2-yl)benzyl)-9-(quinoxalin-2-yl)-2,9-diazaspiro[5.5]undecan-1-one] |  | 675 |  |  | 14 | 
Cc1ccc2nc(N3CCC4(CCCN(Cc5c[nH]c6ccccc56)C4=O)CC3)sc2c1 [Example 153, 2-((1H-indol-3-yl)methyl)-9-(6-methylbenzo[d]thiazol-2-yl)-2,9-diazaspiro[5.5]undecan-1-one] |  |  |  |  | 22 | 35
O=C1N(Cc2c[nH]c3ccccc23)CCCC12CCN(c1nccc(-c3ccccc3)n1)CC2 [Example 154, 2-((1H-indol-3-yl)methyl)-9-(4-phenylpyrimidin-2-yl)-2,9-diazaspiro[5.5]undecan-1-one] | 646 | 115 |  |  |  | 
O=C1N(Cc2c[nH]c3ccccc23)CCCC12CCN(c1ncnc3[nH]ccc13)CC2 [Example 155, 2-((1H-indol-3-yl)methyl)-9-(7H-pyrrolo[2,3-d]pyrimidin-4-yl)-2,9-diazaspiro[5.5]undecan-1-one] | 1530 | 239 |  |  |  | 
O=C1N(Cc2c[nH]c3ccccc23)CCCC12CCN(c1cc(-n3ccnc3)ncn1)CC2 [Example 158, 9-(6-(1H-imidazo-1-yl)pyrimidin-4-yl)-2-((1H-indol-3-yl)methyl)-2,9-diazaspiro[5.5]undecan-1-one] |  | 545 |  |  | 21 | 
COc1ccc2[nH]c(N3CCC4(CCCN(Cc5c[nH]c6ccccc56)C4=O)CC3)nc2c1 [Example 159, 2-((1H-indol-3-yl)methyl)-9-(5-methoxy-1H-benzo[d]imidazol-2-yl)-2,9-diazaspiro[5.5]undecan-1-one] |  | 745 |  |  | 24 | 
O=C1N(Cc2c[nH]c3ccccc23)CCCC12CCN(c1ccc(-c3nccs3)cn1)CC2 [Example 161, 2-((1H-indol-3-yl)methyl)-9-(5-(thiazol-2-yl)pyridin-2-yl)-2,9-diazaspiro[5.5]undecan-1-one] |  | 713 |  |  | 40 | 
O=C1N(Cc2c[nH]c3ccccc23)CCCC12CCN(c1nccc(-c3ccncc3)n1)CC2 [Example 166, 2-((1H-indol-3-yl)methyl)-9-(4-(pyridin-4-yl)pyrimidin-2-yl)-2,9-diazaspiro[5.5]undecan-1-one] | 1160 | 156 |  |  |  | 
Cc1nc2ccccc2nc1N1CCC2(CCCN(Cc3c[nH]c4ccccc34)C2=O)CC1 [Example 170, 2-((1H-indol-3-yl)methyl)-9-(3-methylquinoxalin-2-yl)-2,9-diazaspiro[5.5]undecan-1-one] | 1810 | 535 |  |  |  | 
CC(C)c1nc(CN2CCCC3(CCN(c4cnc5ccccc5n4)CC3)C2=O)co1 [Example 176, 2-((2-isopropyloxazol-4-yl)methyl)-9-(quinoxalin-2-yl)-2,9-diazaspiro[5.5]undecan-1-one] |  |  |  |  | < 10 | < 10

Further lines, results first:

Ki [1] [nM] | Ki [2] [nM] | Kd [3] [nM] | Kd [4] [nM] | inhibition at 10 µM [1] [%] | inhibition at 10 µM [2] [%] | SMILES
236 | 47 | 205 | 196 |  |  | O=C1CCCC2(CCN(c3cnc4ccccc4n3)CC2)N1Cc1c[nH]c2ccccc12 [Example 43, 1-((1H-indol-3-yl)methyl)-9-(quinoxalin-2-yl)-1,9-diazaspiro[5.5]undecan-2-one]
1100 | 247 | 1290 | 473 |  |  | O=C1N(Cc2cccc(-n3ccnn3)c2)CCCC12CCN(c1cnc3ccccc3n1)CC2 [Example 46, 2-(3-(1H-1,2,3-triazol-1-yl)benzyl)-9-(quinoxalin-2-yl)-2,9-diazaspiro[5.5]undecan-1-one]
159 | 13 | 318 | 34 |  |  | O=C1N(Cc2cccc(-n3nccn3)c2)CCCC12CCN(c1cnc3ccccc3n1)CC2 [Example 47, 2-(3-(2H-1,2,3-triazol-2-yl)benzyl)-9-(quinoxalin-2-yl)-2,9-diazaspiro[5.5]undecan-1-one]
2110 | 39 | 3260 | 115 |  |  | O=C1N(Cc2ccccc2-n2nccn2)CCCC12CCN(c1cnc3ccccc3n1)CC2 [Example 49, 2-(2-(2H-1,2,3-triazol-2-yl)benzyl)-9-(quinoxalin-2-yl)-2,9-diazaspiro[5.5]undecan-1-one]
 |  |  |  | 30 | 32 | Cn1nccc1-c1ccccc1CN1CCCC2(CCN(c3cnc4ccccc4n3)CC2)C1=O [Example 148, 2-(2-(1-methyl-1H-pyrazol-5-yl)benzyl)-9-(quinoxalin-2-yl)-2,9-diazaspiro[5.5]undecan-1-one]
1700 | 320 |  |  |  |  | Cc1nnc(N2CCC3(CCCN(Cc4c[nH]c5ccccc45)C3=O)CC2)c2ccccc12 [Example 157, 2-((1H-indol-3-yl)methyl)-9-(4-methylphthalazin-1-yl)-2,9-diazaspiro[5.5]undecan-1-one]
 | 483 |  |  | 23 |  | Cc1ccc2[nH]c(N3CCC4(CCCN(Cc5c[nH]c6ccccc56)C4=O)CC3)nc2c1 [Example 163, 2-((1H-indol-3-yl)methyl)-9-(5-methyl-1H-benzo[d]imidazol-2-yl)-2,9-diazaspiro[5.5]undecan-1-one]
468 | 115 |  |  |  |  | O=C1N(Cc2c[nH]c3ccccc23)CCCC12CCN(c1cc(-c3ccccc3)ncn1)CC2 [Example 165, 2-((1H-indol-3-yl)methyl)-9-(6-phenylpyrimidin-4-yl)-2,9-diazaspiro[5.5]undecan-1-one]
2480 | 786 |  |  |  |  | O=C1N(Cc2c[nH]c3ccccc23)CCCC12CCN(c1nnc(-c3ccccc3)s1)CC2 [Example 171, 2-((1H-indol-3-yl)methyl)-9-(5-phenyl-1,3,4-thiadiazol-2-yl)-2,9-diazaspiro[5.5]undecan-1-one]
 |  |  |  | 14 | 20 | O=C1N(Cc2c[nH]c3ccccc23)CCCC12CCN(c1nc(-c3ccc(F)cc3)cs1)CC2 [Example 172, 2-((1H-indol-3-yl)methyl)-9-(4-(4-fluorophenyl)thiazol-2-yl)-2,9-diazaspiro[5.5]undecan-1-one]
 |  |  |  | < 10 | 12 | Cc1nn(-c2ccccc2)nc1CN1CCCC2(CCN(c3cnc4ccccc4n3)CC2)C1=O [Example 175, 2-((5-methyl-2-phenyl-2H-1,2,3-triazol-4-yl)methyl)-9-(quinoxalin-2-yl)-2,9-diazaspiro[5.5]undecan-1-one]
